Measurements reported in patent US12528818B2, “Compositions and methods for inhibition of RAS” (Leidos Biomedical Research, Inc., priority 2021, dated 2026).

Each compound was assayed on pERK in NCI-H358 cells (assay: Cell-based pERK HTRF assay (pERK inhibition in H358 cells)). Conditions: Homo sapiens, NCI-H358, 0.5 h, pERK inhibition IC50, NCI-H358 cells, 30 min incubation; read-out: PERK in H358 cell.

Row | Compound | IC50
1 | C=CC(=O)N1CCN(c2nc(OC[C@]34CCCN3C[C@H](F)C4)nc3c(F)c(-c4ccc(F)c5sc(N)nc45)c(C(F)(F)F)cc23)[C@H](C)C1 [Compound 196] | < 100 nM
2 | C=CC(=O)N1C[C@@H](Nc2nc(OCC34CCCN3CCC4)nc3c(F)c(-c4ccc(F)c5sc(N)nc45)c(Cl)cc23)[C@H]1C [Compound 197] | > 1000 nM
3 | C=CC(=O)N1CC[C@@H](N(C)c2nc(OC[C@@]34CCCN3C[C@H](F)C4)nc3c(F)c(-c4ccc(F)c5sc(N)nc45)c(C(F)(F)F)cc23)C1 [Compound 198] | < 100 nM
4 | C=C(F)C(=O)N1CCN(c2nc(OC[C@]34CCCN3C[C@H](F)C4)nc3c(F)c(-c4ccc(F)c5sc(N)nc45)c(C(F)(F)F)cc23)[C@H](C)C1 [Compound 199] | 100 to 1000 nM
5 | C=CC(=O)N1CCN(c2c(C#N)c(OC[C@@]34CCCN3C[C@H](F)C4)nc3c(F)c(-c4ccc(F)c5sc(N)nc45)c(Cl)cc23)CC1 [Compound 200] | < 100 nM
6 | C=CC(=O)N1CC(N(C)c2nc(OC[C@@]34CCCN3C[C@H](OC)C4)nc3c(F)c(-c4ccc(F)c5sc(N)nc45)c(C(F)(F)F)cc23)C1 [Compound 201] | 100 to 1000 nM
7 | C=CC(=O)N1C[C@H](C)N(c2nc(OC[C@@]34CCCN3C[C@H](F)C4)nc3c(F)c(-c4ccc(F)c5sc(N)nc45)c(C(F)(F)F)cc23)C[C@H]1C [Compound 202, 1-((2R,5S)-4-(7-(2-amino-7-fluorobenzo[d]thiazol-4-yl)-8-fluoro-2-(((2R,7aS)-2-fluorotetrahydro-1H-pyrrolizin-7a(5H)-yl)methoxy)-6-(trifluoromethyl)quinazolin-4-yl)-2,5-dimethylpiperazin-1-yl)prop-2-en-1-one] | < 100 nM
8 | C=C(F)C(=O)N1C[C@H](C)N(c2nc(OC[C@@]34CCCN3C[C@H](F)C4)nc3c(F)c(-c4ccc(F)c5sc(N)nc45)c(C(F)(F)F)cc23)C[C@H]1C [Compound 203] | 100 to 1000 nM
9 | C=CC(=O)N1C[C@H](C)N(c2nc(OC[C@]34CCCN3C[C@H](F)C4)nc3c(F)c(-c4ccc(F)c5sc(N)nc45)c(C(F)(F)F)cc23)C[C@H]1C [Compound 204, 1-((2R,5S)-4-(7-(2-amino-7-fluorobenzo[d]thiazol-4-yl)-8-fluoro-2-(((2R,7aR)-2-fluorotetrahydro-1H-pyrrolizin-7a(5H)-yl)methoxy)-6-(trifluoromethyl)quinazolin-4-yl)-2,5-dimethylpiperazin-1-yl)prop-2-en-1-one] | < 100 nM
10 | C=C(F)C(=O)N1C[C@H](C)N(c2nc(OC[C@]34CCCN3C[C@H](F)C4)nc3c(F)c(-c4ccc(F)c5sc(N)nc45)c(C(F)(F)F)cc23)C[C@H]1C [Compound 205] | 100 to 1000 nM
11 | C=CC(=O)N1CC(N(CC)c2nc(OC[C@]34CCCN3C[C@H](F)C4)nc3c(F)c(-c4ccc(F)c5sc(N)nc45)c(C(F)(F)F)cc23)C1 [Compound 206] | 100 to 1000 nM
12 | C=CC(=O)N1CCN(c2nc(OC[C@@]34CCCN3C[C@H](F)C4)nc3c(F)c(-c4ccc(F)c5sc(N)nc45)c(C(F)(F)F)cc23)C[C@H]1C [Compound 207] | < 100 nM
13 | C=C(F)C(=O)N1CCN(c2nc(OC[C@@]34CCCN3C[C@H](F)C4)nc3c(F)c(-c4ccc(F)c5sc(N)nc45)c(C(F)(F)F)cc23)C[C@H]1C [Compound 208] | 100 to 1000 nM
14 | C=CC(=O)N1CCN(c2nc(OCC34CCCN3C[C@H](OC)C4)nc3c(F)c(-c4ccc(F)c5sc(N)nc45)c(C(F)(F)F)cc23)CC1 (some centres unmarked) [Compound 209] | < 100 nM
15 | C=CC(=O)N1CC(N(c2nc(OC[C@]34CCCN3C[C@H](F)C4)nc3c(F)c(-c4ccc(F)c5sc(N)nc45)c(Cl)cc23)C2CC2)C1 [Compound 210] | > 1000 nM
16 | C=CC(=O)N1CC(Nc2nc(OCC34CCCN3CCC4)nc3c(F)c(-c4ccc(F)c5sc(N)nc45)c(Cl)cc23)[C@H]1C (some centres unmarked) [Compound 213] | > 1000 nM
17 | C=CC(=O)N1[C@H](C)CN(c2nc(OC[C@]34CCCN3C[C@H](F)C4)nc3c(F)c(-c4ccc(F)c5sc(N)nc45)c(C(F)(F)F)cc23)C[C@@H]1C [Compound 215] | < 100 nM
18 | C=CC(=O)N1CCN(c2nc(OC[C@@]34CCCN3C[C@@H](F)C4)nc3c(F)c(-c4ccc(F)c5sc(N)nc45)c(C(F)(F)F)cc23)[C@H](C)C1 [Compound 217] | 100 to 1000 nM
19 | C=CC(=O)N1CCN(c2nc(OC[C@@]34CCCN3C[C@@H](F)C4)nc3c(F)c(-c4ccc(F)c5sc(N)nc45)c(C(F)(F)F)cc23)[C@@H](C)C1 [Compound 218] | < 100 nM
20 | C=CC(=O)N1C[C@H](C)N(c2nc(OC[C@@]34CCCN3C[C@@H](F)C4)nc3c(F)c(-c4ccc(F)c5sc(N)nc45)c(C(F)(F)F)cc23)C[C@H]1C [Compound 219] | < 100 nM
21 | C=CC(=O)N1CCN(c2nc(OC[C@@]34CCCN3C[C@@H](F)C4)nc3c(F)c(-c4ccc(F)c5sc(N)nc45)c(C(F)(F)F)cc23)C[C@H]1C [Compound 220] | < 100 nM

Row | Compound | IC50
22 | C=CC(=O)N1CC(N(C)c2nc(OC[C@@]34CCCN3C[C@H](F)C4)nc3c(F)c(-c4ccc(F)c5sc(N)nc45)c(C(F)(F)F)cc23)C1 [Compound 223] | < 100 nM
23 | C=CC(=O)N1[C@H](C)CN(c2nc(OC[C@@]34CCCN3C[C@@H](F)C4)nc3c(F)c(-c4ccc(F)c5sc(N)nc45)c(C(F)(F)F)cc23)C[C@@H]1C [Compound 224] | < 100 nM
24 | C=CC(=O)N1CC[C@@H](N(C)c2ncnc3c(F)c(-c4ccc(F)c5sc(N)nc45)c(C(F)(F)F)cc23)C1 [Compound 225] | 100 to 1000 nM
25 | C=CC(=O)N1CC[C@@H](N(C)c2nc(OCC34CCCN3CCC4)nc3c(F)c(-c4cc(O)cc5ccccc45)c(C(F)(F)F)cc23)C1 [Compound 226] | 100 to 1000 nM
26 | C=CC(=O)N1CC[C@@H](N(C)c2nc(OCC34CCCN3CCC4)nc3c(F)c(-c4c(O)cccc4F)c(C(F)(F)F)cc23)C1 [Compound 227] | > 1000 nM
27 | C=CC(=O)N1CC[C@@H](N(C)c2nc(OC[C@@H]3CCCN3C)nc3c(F)c(-c4ccc(F)c5sc(N)nc45)c(C(F)(F)F)cc23)C1 [Compound 230] | 100 to 1000 nM
28 | C=CC(=O)N1C[C@H](C)N(c2nc(OC[C@@]34CCCN3C[C@H](F)C4)nc3c(F)c(-c4ccc(F)c5sc(N)nc45)c(OC(F)(F)F)cc23)C[C@H]1C [Compound 235, 1-((2R,5S)-4-(7-(2-amino-7-fluorobenzo[d]thiazol-4-yl)-8-fluoro-2-(((2R,7aS)-2-fluorotetrahydro-1H-pyrrolizin-7a(5H)-yl)methoxy)-6-(trifluoromethoxy)quinazolin-4-yl)-2,5-dimethylpiperazin-1-yl)prop-2-en-1-one] | < 100 nM
29 | C=CC(=O)N1CC[C@@H](N(C)c2nc(OC[C@@]34CCCN3C[C@H](F)C4)nc3c(F)c(-c4ccc(F)c5sc(N)nc45)c(OC(F)(F)F)cc23)C1 [Compound 238, 1-((3R)-3-((7-(2-amino-7-fluorobenzo[d]thiazol-4-yl)-8-fluoro-2-(((2R,7aS)-2-fluorotetrahydro-1H-pyrrolizin-7a(5H)-yl)methoxy)-6-(trifluoromethoxy)quinazolin-4-yl)(methyl)amino)pyrrolidin-1-yl)prop-2-en-1-one] | 100 to 1000 nM
30 | C=CC(=O)N1CCN(c2nc(OCC34CCCN3CCC4)nc3c(F)c(-c4ccc(F)c5sc(N)nc45)c(C(F)F)cc23)CC1 [Compound 246] | 100 to 1000 nM
31 | C=CC(=O)N1CC(N(C)c2nc(OC[C@@]34CCCN3C[C@H](F)C4)nc3c(F)c(-c4ccc(F)c5sc(N)nc45)c(Cl)cc23)C1 [Compound 247] | < 100 nM
32 | C=CC(=O)N1CC[C@@H](N(CC)c2ncnc3c(F)c(-c4ccc(F)c5sc(N)nc45)c(C(F)(F)F)cc23)C1 [Compound 248] | 100 to 1000 nM
33 | C=CC(=O)N1CC[C@@H](N(CC)c2nc(OCC34CCCN3CCC4)nc3c(F)c(-c4ccc(F)c5sc(N)nc45)c(C(F)(F)F)cc23)C1 [Compound 249] | 100 to 1000 nM
34 | C=CC(=O)N1C[C@H](C)N(c2nc(OC[C@@]34CCCN3C[C@H](F)C4)nc3c(F)c(-c4ccc(F)c5sc(N)c(C#N)c45)c(C(F)(F)F)cc23)C[C@H]1C [Compound 252, 4-(4-((2S,5R)-4-acryloyl-2,5-dimethylpiperazin-1-yl)-8-fluoro-2-(((2R,7aS)-2-fluorotetrahydro-1H-pyrrolizin-7a(5H)-yl)methoxy)-6-(trifluoromethyl)quinazolin-7-yl)-2-amino-7-fluorobenzo[b]thiophene-3-carbonitrile] | < 100 nM
35 | C=CC(=O)N1CC[C@@H](N(C)c2nc(OC[C@@]34CCCN3C[C@H](F)C4)nc3c(F)c(-c4ccc(F)c5sc(N)c(C#N)c45)c(C(F)(F)F)cc23)C1 [Compound 253] | < 100 nM
36 | C=CC(=O)N1CCN(c2nc(OCC34CCCN3CCC4)nc3c(F)c(-c4ccc(F)c5sc(N)nc45)c(OC(F)F)cc23)CC1 [Compound 254] | 100 to 1000 nM
37 | C=CC(=O)N1CC[C@@H](N(CC)c2nc(OC[C@@]34CCCN3C[C@H](F)C4)nc3c(F)c(-c4ccc(F)c5sc(N)nc45)c(C(F)(F)F)cc23)C1 [Compound 257] | < 100 nM
38 | C=CC(=O)N1CC[C@@H](N(C)c2nc(OC[C@@H]3CC(C)(C)CN3C)nc3c(F)c(-c4ccc(F)c5sc(N)nc45)c(C(F)(F)F)cc23)C1 [Compound 265] | < 100 nM
39 | C=CC(=O)N1C[C@H](C)N(c2nc(OC[C@@]34CCCN3C[C@H](F)C4)nc3c(F)c(-c4ccc(F)c5sc(N)nc45)c(Cl)cc23)C[C@H]1C [Compound 266] | < 100 nM
40 | C=CC(=O)N1C[C@H](C)N(c2nc(OC[C@]34CCCN3C[C@H](OC)C4)nc3c(F)c(-c4ccc(F)c5sc(N)nc45)c(C(F)(F)F)cc23)C[C@H]1C [Compound 269] | < 100 nM
41 | C=CC(=O)N1CC(Nc2nc(OC[C@@]34CCCN3C[C@H](F)C4)nc3c(F)c(-c4ccc(F)c5sc(N)nc45)c(C(F)(F)F)cc23)C1 [Compound 270] | < 100 nM
42 | C=CC(=O)N1CC[C@@H](N(C)c2nc(OC[C@@H]3C[C@@H](F)CN3C3CC3)nc3c(F)c(-c4ccc(F)c5sc(N)nc45)c(C(F)(F)F)cc23)C1 [Compound 273] | 100 to 1000 nM

Same assay, conditions: pERK inhibition IC50, NCI-H358 cells, 30 min incubation; read-out: PERK in H358 cell

Row | Compound | IC50
43 | C=CC(=O)N1CCC[C@@H](N(C)c2nc(OC[C@@]34CCCN3C[C@H](F)C4)nc3c(F)c(-c4ccc(F)c5sc(N)nc45)c(C(F)(F)F)cc23)C1 [Compound 244] | < 100 nM
44 | C=CC(=O)N1CCC[C@@H](N(C)c2nc(OC[C@@]34CCCN3C[C@H](F)C4)nc3c(F)c(-c4ccc(F)c5sc(N)nc45)c(C(F)(F)F)cc23)C1 [Compound 245] | > 1000 nM
